Tested on: Axillary Sweating
Assay: Clinical study to evaluate effect of Polysorbate 80 on axillary sweating (gravimetric sweat measurement)
Type: in vivo, human

Polysorbate 80
conclusion on activity in reducing sweat production (conclusion from the clinical study): biologically active in reducing sweat production
reduction in sweat production (average) as measured by gravimetric sweat measurement (two weeks after a single topical treatment, 14.34 mg Polysorbate 80 per axilla (0.3 mL/axilla), subjects with moderate to severe primary axillary hyperhidrosis, 5 minute collection): 159 mg
greater reduction in sweat production than the subjects in the control group (placebo, water) (two weeks after a single topical treatment, 14.34 mg per axilla, 159 mg versus 53 mg placebo): 300%
percent of subjects with at least a 30% reduction in sweat production when compared to levels at the Baseline visit (two weeks after a single topical treatment, 14.34 mg per axilla, gravimetric sweat measurement): 80%
greater effectiveness in reducing sweat production than subjects treated with placebo (responder assessment) (two weeks after a single topical treatment, 80% versus 29% of subjects with at least a 30% reduction): 280%

Reference: patent US20120321579A1, “SURFACTANT COMPOSITIONS” (ANTERIOS, INC., priority 2011, published 2012)
